Measurements as given in patent US20060069132A1, “Azolecarboxamide herbicides” (priority 2004, published 2006).

Legend:
giant foxtail = test: Test B pre-/postemergence herbicide test; assay type: in vivo, Setaria faberi
How it was run: (§1)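 Test chemicals in a non-phytotoxic solvent mixture with surfactant were applied preemergence to seeded species and postemergence to plants 2-18 cm tall (1- to 4-leaf stage); rice and barnyardgrass were also tested in a flooded paddy at the 2-leaf stage. Visual rating versus controls after 13-15 days in greenhouse, scale 0 (no effect) to 100 (complete control).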

cocklebur = test: Test B pre-/postemergence herbicide test; assay type: in vivo, Xanthium strumarium
How it was run: (§2)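 Flooded paddy rice and barnyardgrass were treated at the 2-leaf stage; upland plantings received compound either on sown seed or on 1- to 4-leaf seedlings. All were kept 13–15 days in a greenhouse and scored visually, 0–100, relative to untreated plants.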

lambsquarters = test: Test B pre-/postemergence herbicide test; assay type: in vivo, Chenopodium album
How it was run: as §1

velvetleaf = test: Test B pre-/postemergence herbicide test; assay type: in vivo, Abutilon theophrasti
How it was run: as §1

wild oat = test: Test B postemergence herbicide test; assay type: in vivo, Avena fatua
How it was run: (§3)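 Formulated test chemicals went onto postemergence plants measuring 2 to 18 cm, at one to four leaves. For the paddy assay, species had reached two leaves. Scoring took place 13–15 days later by eye, relative to untreated plants, using 0 for no effect up to 100 for full control.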

corn = test: Test B pre-/postemergence herbicide test; assay type: in vivo, Zea mays
How it was run: as §1

pigweed = test: Test B pre-/postemergence herbicide test; assay type: in vivo, Amaranthus retroflexus
How it was run: as §1

Surinam grass = test: Test B pre-/postemergence herbicide test; assay type: in vivo, Urochloa decumbens
How it was run: as §1

wheat = test: Test B postemergence herbicide test; assay type: in vivo, Triticum aestivum; set-up: key to Wheat plant response rating: 0 = no effect, 100 = complete control
How it was run: as §3

ducksalad = test: Test B flooded paddy test; assay type: in vivo, Heteranthera limosa; conditions: 1000 g ai/ha, scale 0 to 100 (0 no effect, 100 complete control)
How it was run: (§4)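 After treating 2-leaf paddy plants or 2–18 cm postemergence plants (1 to 4 leaves) with formulated chemical, researchers kept them in a greenhouse for 13–15 days. Effects were judged visually versus controls: 0 indicates none, 100 total control.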

barnyardgrass = test: Test B pre-/postemergence herbicide test; assay type: in vivo, Echinochloa crus-galli
How it was run: as §2

large crabgrass = test: Test B pre-/postemergence herbicide test; assay type: in vivo, Digitaria sanguinalis
How it was run: as §1

blackgrass = test: Test B postemergence herbicide test; assay type: in vivo, Alopecurus myosuroides
How it was run: as §4

rice = test: Test B flooded paddy test; assay type: in vivo, Oryza sativa; conditions: 1000 g ai/ha, scale 0 to 100 (0 no effect, 100 complete control)
How it was run: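 Paddy species grown to the 2-leaf stage under flooding; blackgrass sprayed postemergence at 2–18 cm (1- to 4-leaf stage). Plants kept in a greenhouse for 13 to 15 days, then visually rated against controls on 0 (no effect) to 100 (complete control).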

[1] = test system: small flower umbrella sedge; test: Test B flooded paddy test; assay type: in vivo, Cyperus difformis; conditions: 1000 g ai/ha, scale 0 to 100 (0 no effect, 100 complete control)
How it was run: as §4

[2] = 125 g ai/ha, 0 is no effect, 100 is complete control, preemergence
[3] = Postemergence, 500 g ai/ha, scale 0 (no effect) to 100 (complete control)
[4] = postemergence, 125 g ai/ha, scale 0 to 100
[5] = 125 g ai/ha, 0 = no effect, 100 = complete control, preemergence
[6] = 500 g ai/ha, visual rating, 0 = no effect, 100 = complete control, preemergence
[7] = postemergence, 125 g ai/ha, visual rating, scale 0 (no effect) to 100 (complete control)
[8] = postemergence, 500 g ai/ha, scale 0 to 100, 0 is no effect, 100 is complete control

SMILES: C#CCOc1cccc(NC(=O)c2cc(C(C)(C)C)nn2CC)c1 [Compound 411]
- Plant response rating (0 to 100 scale), Foxtail, Giant (giant foxtail; [2]): 10
- Foxtail, Giant plant response rating (giant foxtail; [3]): 30
- Foxtail, Giant plant response rating (giant foxtail; [4]): 20
- Plant response rating (0 to 100 scale), Cocklebur (cocklebur; [2]): 0
- Cocklebur plant response rating (cocklebur; [3]): 60
- Cocklebur plant response rating (cocklebur; [4]): 0
- Plant response rating (0 to 100 scale), Lambsquarters (lambsquarters; [2]): 50
- Lambsquarters plant response rating (lambsquarters; [3]): 90
- Lambsquarters plant response rating (lambsquarters; [4]): 20
- Plant response rating (0 to 100 scale), Velvetleaf (velvetleaf; [2]): 0
- Velvetleaf plant response rating (velvetleaf; [3]): 10
- Velvetleaf plant response rating (velvetleaf; [4]): 0
- Oat, Wild plant response rating (wild oat; [3]): 50
- Oat, Wild plant response rating (wild oat; [4]): 40
- Plant response rating (0 to 100 scale), Corn (corn; [2]): 0
- Corn plant response rating (corn; [3]): 10
- Corn plant response rating (corn; [4]): 10
- Plant response rating (0 to 100 scale), Pigweed (pigweed; [2]): 30
- Pigweed plant response rating (pigweed; [3]): 90
- Pigweed plant response rating (pigweed; [4]): 80
- Plant response rating (0 to 100 scale), Surinam Grass (Surinam grass; [2]): 10
- Surinam Grass plant response rating (Surinam grass; [3]): 10
- Surinam Grass plant response rating (Surinam grass; [4]): 0
- Wheat plant response rating (wheat; 500 g ai/ha, scale 0 to 100, 0 no effect, 100 complete control, preemergence): 60
- Wheat plant response rating (wheat; [3]): 30
- Wheat plant response rating (wheat; [4]): 20
- Ducksalad plant response rating (ducksalad): 80
- Plant response rating (0 to 100 scale), Barnyardgrass (barnyardgrass; [2]): 60
- Barnyardgrass plant response rating (barnyardgrass; Postemergence, 125 g ai/ha, scale 0 (no effect) to 100 (complete control)): 0
- Barnyardgrass plant response rating (barnyardgrass; [3]): 30
- Plant response rating (0 to 100 scale), Crabgrass, Large (large crabgrass; [2]): 80
- Crabgrass, Large plant response rating (large crabgrass; [3]): 30
- Crabgrass, Large plant response rating (large crabgrass; [4]): 0
- Blackgrass plant response rating (blackgrass; [3]): 60
- Blackgrass plant response rating (blackgrass; [4]): 40
- Rice plant response rating (rice): 50
- Sedge, Umbrella plant response rating [1]: 80

SMILES: CCn1nc(C(C)(C)C)cc1C(=O)Nc1cccc(C(=O)N2CC=CC2)c1 [Compound 286]
- Foxtail, Giant plant response rating (0 to 100 scale) (giant foxtail; [5]): 10
- Plant response rating, Foxtail, Giant (giant foxtail; [6]): 90
- Foxtail, Giant plant response rating (giant foxtail; [7]): 20
- Foxtail, Giant plant response rating (giant foxtail; [8]): 50
- Cocklebur plant response rating (0 to 100 scale) (cocklebur; [5]): 0
- Plant response rating, Cocklebur (cocklebur; [6]): 0
- Cocklebur plant response rating (cocklebur; [7]): 10
- Cocklebur plant response rating (cocklebur; [8]): 20
- Lambsquarters plant response rating (0 to 100 scale) (lambsquarters; [5]): 100
- Plant response rating, Lambsquarters (lambsquarters; [6]): 100
- Lambsquarters plant response rating (lambsquarters; [7]): 10
- Lambsquarters plant response rating (lambsquarters; [8]): 70
- Velvetleaf plant response rating (0 to 100 scale) (velvetleaf; [5]): 0
- Plant response rating, Velvetleaf (velvetleaf; [6]): 60
- Velvetleaf plant response rating (velvetleaf; [7]): 10
- Velvetleaf plant response rating (velvetleaf; [8]): 60
- Oat, Wild plant response rating (wild oat; [7]): 30
- Oat, Wild plant response rating (wild oat; [8]): 40
- Corn plant response rating (0 to 100 scale) (corn; [5]): 0
- Plant response rating, Corn (corn; [6]): 50
- Corn plant response rating (corn; [7]): 0
- Corn plant response rating (corn; [8]): 10
- Pigweed plant response rating (0 to 100 scale) (pigweed; [5]): 100
- Plant response rating, Pigweed (pigweed; [6]): 100
- Pigweed plant response rating (pigweed; [7]): 60
- Pigweed plant response rating (pigweed; [8]): 100
- Surinam Grass plant response rating (0 to 100 scale) (Surinam grass; [5]): 10
- Plant response rating, Surinam Grass (Surinam grass; [6]): 60
- Surinam Grass plant response rating (Surinam grass; [7]): 10
- Surinam Grass plant response rating (Surinam grass; [8]): 20
- Wheat plant response rating (wheat; [7]): 20
- Wheat plant response rating (wheat; [8]): 30
- Ducksalad plant response rating (ducksalad): 90
- Barnyardgrass plant response rating (0 to 100 scale) (barnyardgrass; [5]): 30
- Plant response rating, Barnyardgrass (barnyardgrass; [6]): 90
- Barnyardgrass plant response rating (barnyardgrass; [7]): 0
- Barnyardgrass plant response rating (barnyardgrass; [8]): 0
- Crabgrass, Large plant response rating (0 to 100 scale) (large crabgrass; [5]): 0
- Plant response rating, Crabgrass, Large (large crabgrass; [6]): 100
- Crabgrass, Large plant response rating (large crabgrass; [7]): 0
- Crabgrass, Large plant response rating (large crabgrass; [8]): 10
- Blackgrass plant response rating (blackgrass; [7]): 10
- Blackgrass plant response rating (blackgrass; [8]): 20
- Rice plant response rating (rice): 70
- Sedge, Umbrella plant response rating [1]: 80
